# Measured values published in patent US20230407243A1, “GENETIC PLATFORM TO INVESTIGATE THE FUNCTIONS OF BACTERIAL DRUG EFFLUX PUMPS” (priority 2022, published 2023).
# Where two headings read alike, the source gives them in different places.
# What was measured:
# Format in all cases: cell-based, Escherichia coli
# EKO-35 araC::acrD = experiment: MIC susceptibility profiling, efflux platform; details: for Fold change of MICs: EKO-35 araC::acrD compared to EKO-35
# How it was run: (§1)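 OD600 read-out, background-corrected, after 18 h at 37 °C with shaking. Compounds were tested in duplicate as 2-fold series in MHB II, with DMSO as solvent control. Inoculum was a 1/2000 dilution of an OD600 ~1.0 PBS suspension.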
# EKO-35 araC::acrB = experiment: MIC susceptibility profiling, efflux platform; details: for Fold change of MICs: EKO-35 araC::acrB compared to EKO-35
# How it was run: as §1
# EKO-35 araC::acrBD408A = experiment: MIC susceptibility profiling, efflux platform; details: for Fold change of MICs: EKO-35 araC::acrBD408A compared to EKO-35
# How it was run: as §1
# EKO-35 araC::macAB = experiment: MIC susceptibility profiling, efflux platform; details: for Fold change of MICs: EKO-35 araC::macAB compared to EKO-35; for Minimum Inhibitory Concentration, EKO-35 araC::macAB: Table 13B, non-porinated, technical duplicate
# How it was run: as §1
# EKO-35 araC::mdtBC = experiment: MIC susceptibility profiling, efflux platform; details: for Fold change of MICs: EKO-35 araC::mdtBC compared to EKO-35
# How it was run: as §1
# [1] = system: EKO-35 araC::mexCD (MexCD from P. aeruginosa); experiment: MIC susceptibility profiling, efflux platform; details: for Fold change of MICs: EKO-35 araC::mexCD compared to EKO-35
# How it was run: as §1
# EKO-35 araC::mdtEF = experiment: MIC susceptibility profiling, efflux platform; details: for Fold change of MICs: EKO-35 araC::mdtEF compared to EKO-35
# How it was run: as §1
# EKO-35 araC::acrEF = experiment: MIC susceptibility profiling, efflux platform; details: for Fold change of MICs: EKO-35 araC::acrEF compared to EKO-35
# How it was run: as §1
# EKO-35 araC::emrAB = experiment: MIC susceptibility profiling, efflux platform; details: for Fold change of MICs: EKO-35 araC::emrAB compared to EKO-35
# How it was run: as §1
# EKO-35 araC::emrKY = experiment: MIC susceptibility profiling, efflux platform; details: for Fold change of MICs: EKO-35 araC::emrKY compared to EKO-35
# How it was run: as §1
# wild-type (WT) K-12-Pore = experiment: microbe, parasite or virus in culture; details: technical duplicate; for MIC: Escherichia coli
# How it was run: (§2)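 Strains carry the fhuA ΔC/Δ4L pore integrated between glmS and pstS under a constitutive promoter, with pore activity checked by vancomycin susceptibility. Overnight LB cultures were adjusted in PBS pH 7.4 to OD600 ~1.0 and diluted 1/2000 into MHB II. 2-fold compound titrations were read by OD600 after 18 h at 37 °C.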
# ΔtolC-Pore = experiment: microbe, parasite or virus in culture; details: for Minimum inhibitory concentration (MIC), Pore ΔtolC: Table 10, with pore; for Minimum inhibitory concentration (MIC), Pore ΔtolC / Minimum inhibitory concentration, ΔtolC-Pore: technical duplicate; for Minimum inhibitory concentration, ΔtolC-Pore: Table 14A, porinated
# How it was run: as §2
# EKO-35-Pore = experiment: MIC susceptibility profiling, porinated strain; details: for Fold changes of MICs: EKO-35-Pore compared to EKO-35-Pore (reference); for Minimum inhibitory concentration (MIC), Pore EKO-35: Table 10, with pore; for Minimum inhibitory concentration (MIC), Pore EKO-35 / Minimum inhibitory concentration, EKO-35-Pore: technical duplicate; for Minimum inhibitory concentration, EKO-35-Pore: Table 14A, porinated
# How it was run: as §2
# EKO-35 araC::acrD Pore = experiment: MIC susceptibility profiling, porinated efflux platform; details: for Fold changes of MICs: EKO-35 araC::acrD Pore compared to EKO-35-Pore; for Minimum inhibitory concentration, EKO-35 araC::acrD Pore: Table 14A, porinated, technical duplicate
# How it was run: as §2
# [2] = system: EKO-35 araC::acrBD408A Pore; experiment: as above; details: for Fold changes of MICs: EKO-35 araC::acrBD408A Pore compared to EKO-35-Pore
# How it was run: as §2
# EKO-35 araC::acrEF Pore = experiment: as above; details: for Fold changes of MICs: EKO-35 araC::acrEF Pore compared to EKO-35-Pore; for Minimum inhibitory concentration, EKO-35 araC::acrEF Pore: Table 14A, porinated, technical duplicate
# How it was run: as §2
# EKO-35 araC::acrB Pore = experiment: as above; details: for Fold changes of MICs: EKO-35 araC::acr-B Pore compared to EKO-35-Pore
# How it was run: as §2
# EKO-35 araC::emrAB Pore = experiment: as above; details: for Fold changes of MICs: EKO-35 araC::emrAB Pore compared to EKO-35-Pore; for efflux pump-mediated resistance vs EKO-35-Pore: EmrAB, porinated strain
# How it was run: as §2
# [3] = Table 13A, non-porinated, technical duplicate
# [4] = Table 13B, non-porinated, technical duplicate
# [5] = EKO-35 araC::acrBD408A Pore, technical duplicate
# [6] = Table 14A, porinated, technical duplicate
# [7] = EKO-35 araC::emrAB Pore, technical duplicate
SMILES,Fold change of MICs (EKO-35 araC::acrD),"Minimum Inhibitory Concentration, EKO-35 araC::acrD (EKO-35 araC::acrD; [3])",Fold change of MICs (EKO-35 araC::acrB),"Minimum Inhibitory Concentration, EKO-35 araC::acrB (EKO-35 araC::acrB; [3])",Fold change of MICs (EKO-35 araC::acrBD408A),"Minimum Inhibitory Concentration, EKO-35 araC::acrBD408A (EKO-35 araC::acrBD408A; [4])",Fold change of MICs (EKO-35 araC::macAB),Fold change of MICs (EKO-35 araC::mdtBC),Fold change of MICs [1],Fold change of MICs (EKO-35 araC::mdtEF),Fold change of MICs (EKO-35 araC::acrEF),Fold change of MICs (EKO-35 araC::emrAB),Fold change of MICs (EKO-35 araC::emrKY),"Minimum inhibitory concentration (MIC), Pore ΔtolC (ΔtolC-Pore)",Fold changes of MICs (EKO-35-Pore),Fold changes of MICs (EKO-35 araC::acrD Pore),Fold changes of MICs [2],Fold changes of MICs (EKO-35 araC::acrEF Pore),Fold changes of MICs (EKO-35 araC::acrB Pore),Fold changes of MICs (EKO-35 araC::emrAB Pore),also measured
N#CC(C#N)=NNc1cccc(Cl)c1 [CCCP],1 fold,6.25 µg/mL,1 fold,12.5 µg/mL,1 fold,12.5 µg/mL,1 fold,1 fold,1 fold,1 fold,1 fold,4 fold,1 fold,0.391 µg/mL,1 fold,1 fold,1 fold,1 fold,1 fold,2 fold,"Minimum Inhibitory Concentration, EKO-35 araC::macAB (EKO-35 araC::macAB): 12.5 µg/mL; Minimum Inhibitory Concentration, EKO-35 araC::mdtBC (EKO-35 araC::mdtBC; [4]): 12.5 µg/mL; Minimum Inhibitory Concentration, EKO-35 araC::mexCD [1, 4]: 12.5 µg/mL; Minimum Inhibitory Concentration, EKO-35 araC::mdtEF (EKO-35 araC::mdtEF; [3]): 12.5 µg/mL; Minimum Inhibitory Concentration, EKO-35 araC::acrEF (EKO-35 araC::acrEF; [3]): 12.5 µg/mL; efflux pump-mediated resistance vs EKO-35 (EKO-35 araC::emrAB; EmrAB): conferred resistance; Minimum Inhibitory Concentration, EKO-35 araC::emrAB (EKO-35 araC::emrAB; [4]): 50 µg/mL; Minimum Inhibitory Concentration, EKO-35 araC::emrKY (EKO-35 araC::emrKY; [4]): 12.5 µg/mL; Minimum inhibitory concentration (MIC), Pore K-12 (wild-type (WT) K-12-Pore; Table 10, with pore): 12.5 µg/mL; Minimum inhibitory concentration, K-12 (WT)-Pore (wild-type (WT) K-12-Pore; Table 14A, porinated): 12.5 µg/mL; Minimum inhibitory concentration, ΔtolC-Pore (ΔtolC-Pore): 0.391 µg/mL; Minimum inhibitory concentration (MIC), Pore EKO-35 (EKO-35-Pore): 6.25 µg/mL; Minimum inhibitory concentration, EKO-35-Pore (EKO-35-Pore): 6.25 µg/mL; Minimum inhibitory concentration, EKO-35 araC::acrD Pore (EKO-35 araC::acrD Pore): 6.25 µg/mL; Minimum inhibitory concentration [2, 5]: 6.25 µg/mL; Minimum inhibitory concentration, EKO-35 araC::acrEF Pore (EKO-35 araC::acrEF Pore): 3.125 µg/mL; Minimum inhibitory concentration, EKO-35 araC::acrB Pore (EKO-35 araC::acrB Pore; [6]): 6.25 µg/mL; Minimum inhibitory concentration (EKO-35 araC::emrAB Pore; [7]): 12.5 µg/mL; efflux pump-mediated resistance vs EKO-35-Pore (EKO-35 araC::emrAB Pore): no longer provided resistance"
Nc1ccc(S(=O)(=O)Nc2nccs2)cc1 [Sulfathiazole],1 fold,,1 fold,,1 fold,,1 fold,1 fold,1 fold,1 fold,1 fold,1 fold,1 fold,2.5 µg/mL,1 fold,1 fold,0 fold,1 fold,2 fold,2 fold,"MIC (EKO-35 araC::acrD; Escherichia coli, Table 13A, non-porinated, technical duplicate, read-out: Minimum Inhibitory Concentration, EKO-35 araC::acrD): 10 µg/mL; MIC (EKO-35 araC::acrB; Escherichia coli, Table 13A, non-porinated, technical duplicate, read-out: Minimum Inhibitory Concentration, EKO-35 araC::acrB): 10 µg/mL; MIC (EKO-35 araC::acrBD408A; Escherichia coli, Table 13B, non-porinated, technical duplicate, read-out: Minimum Inhibitory Concentration, EKO-35 araC::acrBD408A): 10 µg/mL; MIC (EKO-35 araC::mdtBC; Escherichia coli, Table 13B, non-porinated, technical duplicate, read-out: Minimum Inhibitory Concentration, EKO-35 araC::mdtBC): 10 µg/mL; MIC ([1]; Table 13B, non-porinated, technical duplicate, read-out: Minimum Inhibitory Concentration, EKO-35 araC::mexCD): 10 µg/mL; MIC (EKO-35 araC::mdtEF; Escherichia coli, Table 13A, non-porinated, technical duplicate, read-out: Minimum Inhibitory Concentration, EKO-35 araC::mdtEF): 10 µg/mL; MIC (EKO-35 araC::acrEF; Escherichia coli, Table 13A, non-porinated, technical duplicate, read-out: Minimum Inhibitory Concentration, EKO-35 araC::acrEF): 10 µg/mL; MIC (EKO-35 araC::emrAB; Escherichia coli, Table 13B, non-porinated, technical duplicate, read-out: Minimum Inhibitory Concentration, EKO-35 araC::emrAB): 10 µg/mL; MIC (EKO-35 araC::emrKY; Escherichia coli, Table 13B, non-porinated, technical duplicate, read-out: Minimum Inhibitory Concentration, EKO-35 araC::emrKY): 10 µg/mL; MIC (wild-type (WT) K-12-Pore; Table 10, with pore, read-out: Minimum inhibitory concentration (MIC), Pore K-12): 5 µg/mL; MIC (wild-type (WT) K-12-Pore; Table 14A, porinated, read-out: Minimum inhibitory concentration, K-12 (WT)-Pore): 5 µg/mL; MIC (ΔtolC-Pore; Escherichia coli, 18 h, read-out: Minimum inhibitory concentration, ΔtolC-Pore): 2.5 µg/mL; MIC ([2]; Escherichia coli, EKO-35 araC::acrBD408A Pore, technical duplicate, read-out: Minimum inhibitory concentration): 1.25 µg/mL; MIC (EKO-35 araC::acrB Pore; Escherichia coli, Table 14A, porinated, technical duplicate, read-out: Minimum inhibitory concentration, EKO-35 araC::acrB Pore): 10 µg/mL; MIC (EKO-35 araC::emrAB Pore; Escherichia coli, EKO-35 araC::emrAB Pore, technical duplicate, read-out: Minimum inhibitory concentration): 10 µg/mL"
COC(=O)c1sc(N2CCCC2)c(C#N)c1-c1cccs1 [compound 10],1 fold,160 µg/mL,1 fold,160 µg/mL,1 fold,160 µg/mL,1 fold,1 fold,1 fold,1 fold,1 fold,1 fold,1 fold,5 µg/mL,1 fold,16 fold,1 fold,16 fold,16 fold,16 fold,"Minimum Inhibitory Concentration, EKO-35 araC::macAB (EKO-35 araC::macAB): 160 µg/mL; Minimum Inhibitory Concentration, EKO-35 araC::mdtBC (EKO-35 araC::mdtBC; [4]): 160 µg/mL; Minimum Inhibitory Concentration, EKO-35 araC::mexCD [1, 4]: 160 µg/mL; Minimum Inhibitory Concentration, EKO-35 araC::mdtEF (EKO-35 araC::mdtEF; [3]): 160 µg/mL; Minimum Inhibitory Concentration, EKO-35 araC::acrEF (EKO-35 araC::acrEF; [3]): 160 µg/mL; Minimum Inhibitory Concentration, EKO-35 araC::emrAB (EKO-35 araC::emrAB; [4]): 160 µg/mL; Minimum Inhibitory Concentration, EKO-35 araC::emrKY (EKO-35 araC::emrKY; [4]): 160 µg/mL; Minimum inhibitory concentration (MIC), Pore K-12 (wild-type (WT) K-12-Pore; Table 10, with pore): 160 µg/mL; Minimum inhibitory concentration, K-12 (WT)-Pore (wild-type (WT) K-12-Pore; Table 14A, porinated): 160 µg/mL; Minimum inhibitory concentration, ΔtolC-Pore (ΔtolC-Pore): 5 µg/mL; Minimum inhibitory concentration (MIC), Pore EKO-35 (EKO-35-Pore): 10 µg/mL; Minimum inhibitory concentration, EKO-35-Pore (EKO-35-Pore): 10 µg/mL; Minimum inhibitory concentration, EKO-35 araC::acrD Pore (EKO-35 araC::acrD Pore): 160 µg/mL; Minimum inhibitory concentration [2, 5]: 10 µg/mL; efflux pump-mediated resistance vs EKO-35-Pore (EKO-35 araC::acrEF Pore; AcrEF with the pore): increased resistance; Minimum inhibitory concentration, EKO-35 araC::acrEF Pore (EKO-35 araC::acrEF Pore): 160 µg/mL; efflux pump-mediated resistance vs EKO-35-Pore (EKO-35 araC::acrB Pore; AcrB with the pore): increased resistance; Minimum inhibitory concentration, EKO-35 araC::acrB Pore (EKO-35 araC::acrB Pore; [6]): 160 µg/mL; Minimum inhibitory concentration (EKO-35 araC::emrAB Pore; [7]): 160 µg/mL; efflux pump-mediated resistance vs EKO-35-Pore (EKO-35 araC::emrAB Pore): associated with resistance"
